What was measured:
[1] = target: T1, hYAK3 (Homo sapiens, UniProt O43781); test: YAK3 scintillation proximity assay using Ser164 of myelin basic protein as the phosphoacceptor; assay type: biochemical; settings: purified GST-hYak3-His6, 4 μM Ser164 peptide, 0.001 mM ATP, 2 hours room temperature; read-out: pIC50 values (converted)
T1 construct: GST (N); His6 (C); made in house; host or cells: baculovirus expression system in Sf9 cells
T1 sequence (O43781 124-526): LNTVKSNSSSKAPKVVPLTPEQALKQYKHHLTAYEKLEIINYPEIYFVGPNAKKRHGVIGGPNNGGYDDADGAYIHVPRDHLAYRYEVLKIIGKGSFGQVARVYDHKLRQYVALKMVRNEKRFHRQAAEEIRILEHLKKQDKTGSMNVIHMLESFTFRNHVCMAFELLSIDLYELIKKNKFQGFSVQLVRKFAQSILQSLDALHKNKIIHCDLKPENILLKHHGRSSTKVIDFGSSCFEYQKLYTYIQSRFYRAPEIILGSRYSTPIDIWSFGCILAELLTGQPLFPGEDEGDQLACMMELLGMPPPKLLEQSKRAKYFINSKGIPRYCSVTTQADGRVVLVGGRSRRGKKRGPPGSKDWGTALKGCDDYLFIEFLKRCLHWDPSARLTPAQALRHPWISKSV
Description: YAK3 Scintillation Proximity Assays Using Ser164 of Myelin Basic Protein as the Phosphoacceptor
The source of Ser164 substrate peptide The biotinylated Ser164, S164A peptide(Biotinyl—LGGRDSRAGS*PMARR—OH), sequence derived from the C-terminus of bovine myelin basic protein (MBP) with Ser162 substituted as Ala162, was purchased from California Peptide Research Inc. (Napa, Calif.), and its purity was determined by HPLC. Phosphorylation occurs at position 164 (marked S* above). The calculated molecular mass of the peptide was 2166 dalton. Solid sample was dissolved at 10 mM in DMSO, aliquoted, and stored at −20° C. until use.
The source of hYAK3 enzyme: Glutathione-S-Transferase (GST)-hYak3-His6 containing amino acid residues 124-526 of human YAK3 (aa 124-526 of SEQ ID NO 2. in U.S. Pat. No. 6,323,318) was purified from baculovirus expression system in Sf9 cells using Glutathione Sepharose 4B column chromatography followed by Ni-NTA-Agarose column chromatography. Purity greater than 65% typically was achieved. Samples, in 50 mM Tris, 150 mM NaCl, 10% glycerol, 0.1% Triton, 250 mM imidazole, 10 mM β-mercapto ethanol, pH 8.0. were stored at −80° C. until use.
Kinase assay of purified hYAK3: Assays were performed in 96 well (Costar, Catalog No. 3789) or 384 well plates (Costar, Catalog No. 3705). […] Compounds, titrated in DMSO, were evaluated at concentrations ranging from 50 μM to 0.5 nM. […]

[2] = target: T2, casein kinase 2 alpha (CK2α) (Homo sapiens, UniProt P68400); test: CK2α kinase assay using peptide phosphoacceptor (substrate phosphorylation, SPA); assay type: biochemical; settings: purified CK2α (co-expressed with CK2β), 0.001 mM peptide, 0.001 mM ATP, 3 hours room temperature; read-out: pIC50 values (converted)
T2 construct: made in house; host or cells: baculovirus-based vectors in Sf21 insect cells
T2 sequence (P68400 whole entry): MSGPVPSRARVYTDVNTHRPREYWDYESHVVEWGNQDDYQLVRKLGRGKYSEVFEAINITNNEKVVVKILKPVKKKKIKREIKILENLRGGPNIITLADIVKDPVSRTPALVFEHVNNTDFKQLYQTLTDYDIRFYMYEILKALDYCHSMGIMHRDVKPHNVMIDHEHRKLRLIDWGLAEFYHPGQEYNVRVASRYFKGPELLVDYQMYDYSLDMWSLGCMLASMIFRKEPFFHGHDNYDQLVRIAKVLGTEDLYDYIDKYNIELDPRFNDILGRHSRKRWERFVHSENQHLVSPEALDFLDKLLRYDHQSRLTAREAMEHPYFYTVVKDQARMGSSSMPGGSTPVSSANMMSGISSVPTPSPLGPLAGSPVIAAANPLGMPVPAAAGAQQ
T2 sequence (P67870 whole entry partner): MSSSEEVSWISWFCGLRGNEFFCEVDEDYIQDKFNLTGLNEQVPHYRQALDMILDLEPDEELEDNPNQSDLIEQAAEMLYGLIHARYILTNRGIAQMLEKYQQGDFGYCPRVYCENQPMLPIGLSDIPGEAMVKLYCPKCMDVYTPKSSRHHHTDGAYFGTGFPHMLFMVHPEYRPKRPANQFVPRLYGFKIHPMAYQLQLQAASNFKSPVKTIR
Description: Compounds of the present invention were also tested for casein kinase 2 alpha (CK2α) inhibitory activity in substrate phosphorylation assays. This assay examines the ability of small molecule organic compounds to inhibit the serine phosphorylation of a peptide substrate.
Kinase Assays Using Peptide Phosphoacceptor
The biotinylated peptide (Biotin—GGRRRDDDS*DDD-OH), was purchased from Biosource International, Inc. (Camarillo, Calif.), and its purity was determined by HPLC. Phosphorylation of serine (S*) occurs under assay conditions described. The calculated molecular mass of the peptide was 1713 dalton. Solid sample was dissolved at 10 mM in DMSO, aliquoted, and stored at −20° C. until use.
Recombinant expression of casein kinase 2 alpha (CK2α), using baculovirus-based vectors in Sf21 insect cells and purified by P11 phosphocellulose (Whatman) chromatography of the clarified cell lysate, produced constitutively active enzyme. CK2α was co-expressed with CK2β. Samples were stored at −20° C. in the presence of 50% glycerol until use.
Kinase Assay of Purified CK2α:
Assays were performed in 384 well plates (Costar, Catalog No. 3705). Compounds first were delivered to the plate in one microliter DMSO, followed by reaction mix (in 40 ul volume), which contained in final concentrations 25 mM Hepes buffer, pH 7.4; […]; 150 mM NaCl; 1 mM β-mercapto ethanol; 0.0025% Tween-20; 0.001 mM ATP, 0.1 μCi of [γ-33P]ATP; purified CK2α (6 ng/assay), and 0.001 mM peptide. […]
The data for dose responses were plotted as % Inhibition, calculated with the data reduction formula 100*(1−[(U1−C2)/(C1−C2)]), versus concentration of compound, where U is the unknown value, C1 is the average control value obtained for DMSO, and C2 is the average control value obtained for 0.05M EDTA Data were fitted to the curve described by: y=((Vmax*x)/(K+x)) where Vmax is the upper asymptote and K is the IC50. The results for each compound were recorded as pIC50 calculated as follows: pIC50=−Log 10(K) in Table 2.

Structure (SMILES) | IC50 [1] [nM] | IC50 [2] [nM]
COc1ccc(-c2nc(Nc3ccccc3C(F)(F)F)c(C(=O)O)s2)cc1 [Ibd, 5-Carboxyl-2-(4-methoxyphenyl)-4-(2-trifluoromethylanilino)thiazole] | 102 to 1000 | –
COc1cccc(-c2nc(Nc3ccccc3F)c(C(=O)O)s2)c1 [Ibf, 5-Carboxyl-4-(2-fluoroanilino)-2-(3-methoxyphenyl)thiazole] | 1020 to 10000 | –
NC(=O)c1sc(-c2ccc3c(c2)CCO3)nc1Nc1ccccc1Cl [Ieb, 4-(2-Chlorophenylamino)-2-(2,3-dihydrobenzofuran-5-yl) thiazole-5-carboxylic acid amide] | – | 1020 to 10000
COc1ccc(-c2nc(Nc3cc(C(N)=O)ccc3Cl)c(C(=O)O)s2)cc1 [Ief, 4-(5-Carbamoyl-2-chlorophenylamino)-2-(4-methoxyphenyl)thiazole-5-carboxylic acid] | – | 10.2 to 100
COc1ccc(-c2nc(Nc3cc(S(=O)(=O)O)ccc3Cl)c(C(=O)O)s2)cc1 [Ieg, 4-(2-Chloro-5-sulfophenylamino)-2-(4-methoxyphenyl) thiazole-5-carboxylic acid] | – | 102 to 1000
